Measured values published in patent publication US20260007758A1, “SO[…]-2 RECEPTOR (SST2R) NON-PEPTIDE DRUG CONJUGATES AND USES THEREOF” (Crinetics Pharmaceuticals, Inc., priority 2024, published 2026).

Columns and labels:
Assay type in all cases: cell-based
[1] = tested on: NCI-H524 human small cell lung cancer cells; test: H524 assay: inhibition of cell proliferation (CellTiter Glo); conditions: 2 h treatment, washout, additional 70 h incubation
How it was run: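 Proliferation was measured by CellTiter Glo 70 h after a washout that followed a 2 h pulse of NDC. Doses were an 11-point, two-fold dilution series from 1 uM. IC50 was fitted with a four-parameter model to luminescence-based % inhibition relative to control cells.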

[2] = molecular target: T1, human somatostatin receptor subtype 2 (Homo sapiens, UniProt P30874); test: Functional assay for SSTR2 agonists (HTRF cAMP); conditions: CHO-K1 cells stably expressing human SST2; NKH477-stimulated cAMP; 20 min at 37 C; read-out: hSST2 cAMP Avg EC50
T1 construct: expressed in transfected cells
How it was run: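 Agonist activity read as fall in intracellular cAMP: HTRF 665/620 nm ratio regressed to a cAMP standard curve, EC50 fitted. Stable human SSTR2 CHO-K1 cells exposed 20 min at 37 °C to compound, final concentrations typically 0-10,000 nM.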

SST2 = molecular target: T2, SST2 (Homo sapiens, UniProt P30874); test: PathHunter CHO-K1 SST2 Internalization Assay; conditions: PathHunter CHO-K1 SST2 cells; 90 min at 37 C; luminescence; read-out: Internalization EC50
T2 construct: host or cells: PathHunter CHO-K1 SST2 cells
How it was run: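 Four-parameter nonlinear fits of background-corrected luminescence (duplicate means) gave IC50s. NDCs were serially diluted 1:3 over 11 points from a 10 uM final top concentration and incubated 90 min at 37 C with human SST2 CHO-K1 cells plated 48 h earlier at 2500/well. Beta-Glo read-out developed 60 min at RT.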

T2 sequence (P30874 whole entry): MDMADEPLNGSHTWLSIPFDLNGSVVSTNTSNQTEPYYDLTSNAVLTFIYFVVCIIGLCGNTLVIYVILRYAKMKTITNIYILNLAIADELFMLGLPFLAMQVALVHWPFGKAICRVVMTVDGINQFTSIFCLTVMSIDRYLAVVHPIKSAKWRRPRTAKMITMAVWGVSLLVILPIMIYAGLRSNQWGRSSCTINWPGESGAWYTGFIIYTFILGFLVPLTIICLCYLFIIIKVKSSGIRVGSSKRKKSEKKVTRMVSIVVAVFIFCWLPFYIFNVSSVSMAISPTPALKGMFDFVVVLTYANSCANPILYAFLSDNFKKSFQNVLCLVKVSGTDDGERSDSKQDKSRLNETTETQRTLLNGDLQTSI
T1 sequence (P30874 whole entry): as above

Row | Compound | EC50 [1] [nM] | EC50 [2] [nM] | EC50 (SST2) [nM]
1 | CC[C@H](C)[C@@H]([C@@H](CC(=O)N1CCC[C@H]1[C@H](OC)[C@@H](C)C(=O)N[C@H](C)[C@@H](O)c1ccccc1)OC)N(C)C(=O)[C@@H](NC(=O)[C@H](C(C)C)N(C)C(=O)OCc1ccc(NC(=O)[C@H](CCCNC(N)=O)NC(=O)[C@@H](NC(=O)CCCCCCCCNc2ncc(-c3cc(C)cc(F)c3)c(N3CCC(N)CC3)c2-c2nc3ccc(Cl)cc3[nH]2)C(C)C)c(O[C@@H]2O[C@H](C(=O)NCC(=O)O)[C@@H](O)[C@H](O)[C@H]2O)c1)C(C)C [Compound 193] | 32 | 0.87 | 3.8
2 | CC[C@H](C)[C@@H]([C@@H](CC(=O)N1CCC[C@H]1[C@H](OC)[C@@H](C)C(=O)N[C@H](C)[C@@H](O)c1ccccc1)OC)N(C)C(=O)[C@@H](NC(=O)[C@H](C(C)C)N(C)C(=O)OCc1ccc(NC(=O)[C@H](CCCNC(N)=O)NC(=O)[C@@H](NC(=O)[C@H](CCC(=O)O)NC(=O)CCOCCC(=O)NCCNc2ncc(-c3cc(C)cc(F)c3)c(N3CCC(N)CC3)c2-c2nc3ccc(Cl)cc3[nH]2)C(C)C)cc1C(F)(F)F)C(C)C [Compound 2] | 2500 | 0.57 | 8.6
3 | CC[C@H](C)[C@@H]([C@@H](CC(=O)N1CCC[C@H]1[C@H](OC)[C@@H](C)C(=O)N[C@H](C)[C@@H](O)c1ccccc1)OC)N(C)C(=O)[C@@H](NC(=O)[C@H](C(C)C)N(C)C(=O)OCc1ccc(NC(=O)[C@H](CCCNC(N)=O)NC(=O)[C@@H](NC(=O)CCOCCC(=O)NCCNc2ncc(-c3cc(C)cc(F)c3)c(N3CCC(N)CC3)c2-c2nc3ccc(Cl)cc3[nH]2)C(C)C)c(O[C@@H]2O[C@H](C(=O)N3CCNCC3)[C@@H](O)[C@H](O)[C@H]2O)c1)C(C)C [Compound 222] | 1.9 | 0.11 | 4.3
4 | CC[C@H](C)[C@@H]([C@@H](CC(=O)N1CCC[C@H]1[C@H](OC)[C@@H](C)C(=O)N[C@H](C)[C@@H](O)c1ccccc1)OC)N(C)C(=O)[C@@H](NC(=O)[C@H](C(C)C)N(C)C(=O)OCc1ccc(NC(=O)[C@H](CCCNC(N)=O)NC(=O)[C@@H](NC(=O)CCOCCC(=O)N(C)CC(=O)NCCNc2ncc(-c3cc(C)cc(F)c3)c(N3CCC(N)CC3)c2-c2nc3ccc(Cl)cc3[nH]2)C(C)C)c(O)c1)C(C)C [Compound 199] | 8.9 | 0.071 | 4.1
5 | CC[C@H](C)[C@@H]([C@@H](CC(=O)N1CCC[C@H]1[C@H](OC)[C@@H](C)C(=O)N[C@H](C)[C@@H](O)c1ccccc1)OC)N(C)C(=O)[C@@H](NC(=O)[C@H](C(C)C)N(C)C(=O)OCc1ccc(NC(=O)[C@H](C)NC(=O)[C@@H](NC(=O)CCOCCOCCOCCOCCC(=O)NCCNc2ncc(-c3cc(C)cc(F)c3)c(N3CCC(N)CC3)c2-c2nc3ccc(Cl)cc3[nH]2)C(C)C)c(OCC(=O)O)c1)C(C)C [Compound 14] | 19 | 0.037 | 4.6
6 | CC[C@H](C)[C@@H]([C@@H](CC(=O)N1CCC[C@H]1[C@H](OC)[C@@H](C)C(=O)N[C@H](C)[C@@H](O)c1ccccc1)OC)N(C)C(=O)[C@@H](NC(=O)[C@H](C(C)C)N(C)C(=O)OCc1ccc(NC(=O)[C@H](C)NC(=O)[C@@H](NC(=O)CCOCCC(=O)NCCNc2ncc(-c3cc(C)cc(F)c3)c(N3CCC(N)CC3)c2-c2cc3ccc(OC)cc3[nH]2)C(C)C)c(O[C@@H]2O[C@H](C(=O)O)[C@@H](O)[C@H](O)[C@H]2O)c1)C(C)C [Compound 117] | 58 | 0.46 | 19
7 | CC[C@H](C)[C@@H]([C@@H](CC(=O)N1CCC[C@H]1[C@H](OC)[C@@H](C)C(=O)N[C@H](C)[C@@H](O)c1ccccc1)OC)N(C)C(=O)[C@@H](NC(=O)[C@H](C(C)C)N(C)C(=O)OCc1ccc(NC(=O)[C@H](CCCNC(N)=O)NC(=O)[C@@H](NC(=O)[C@H](CCC(=O)O)NC(=O)CCOCCC(=O)NCCNc2ncc(-c3cc(C)cc(F)c3)c(N3CCC(N)CC3)c2-c2nc3ccc(Cl)cc3[nH]2)C(C)C)cc1C(=O)NOC)C(C)C [Compound 89] | 1100 | 0.57 | 3.6
8 | CC[C@H](C)[C@@H]([C@@H](CC(=O)N1CCC[C@H]1[C@H](OC)[C@@H](C)C(=O)N[C@H](C)[C@@H](O)c1ccccc1)OC)N(C)C(=O)[C@@H](NC(=O)[C@H](C(C)C)N(C)C(=O)OCc1ccc(NC(=O)[C@H](CCCNC(N)=O)NC(=O)[C@@H](NC(=O)[C@H](CCC(=O)O)NC(=O)CCOCCOCCOCCOCCC(=O)NCCNc2ncc(-c3cc(C)cc(F)c3)c(N3CCC(N)CC3)c2-c2nc3ccc(Cl)cc3[nH]2)C(C)C)cc1C(=O)O)C(C)C [Compound 3] | 680 | 0.19 | 6.8
9 | CC[C@H](C)[C@@H]([C@@H](CC(=O)N1CCC[C@H]1[C@H](OC)[C@@H](C)C(=O)N[C@H](C)[C@@H](O)c1ccccc1)OC)N(C)C(=O)[C@@H](NC(=O)[C@H](C(C)C)N(C)C(=O)OCc1ccc(NC(=O)[C@H](C)NC(=O)[C@@H](NC(=O)CCOCCC(=O)NCCNc2ncc(-c3cc(C)cc(F)c3)c(N3CCC(N)CC3)c2-c2nc3cnccc3[nH]2)C(C)C)c(O[C@@H]2O[C@H](C(=O)O)[C@@H](O)[C@H](O)[C@H]2O)c1)C(C)C [Compound 127] | 170 | 1.6 | 290
10 | CC[C@H](C)[C@@H]([C@@H](CC(=O)N1CCC[C@H]1[C@H](OC)[C@@H](C)C(=O)N[C@H](C)[C@@H](O)c1ccccc1)OC)N(C)C(=O)[C@@H](NC(=O)[C@H](C(C)C)N(C)C(=O)OCc1ccc(NC(=O)[C@H](C)NC(=O)[C@@H](NC(=O)[C@H](CCc2nnn[nH]2)NC(=O)CCOCCC(=O)NCCNc2ncc(-c3cc(C)cc(F)c3)c(N3CCC(N)CC3)c2-c2nc3ccc(Cl)cc3[nH]2)C(C)C)cc1C(=O)NCCN)C(C)C [Compound 66] | 6.8 | 0.14 | 5.6
11 | CC[C@H](C)[C@@H]([C@@H](CC(=O)N1CCC[C@H]1[C@H](OC)[C@@H](C)C(=O)N[C@H](C)[C@@H](O)c1ccccc1)OC)N(C)C(=O)[C@@H](NC(=O)[C@H](C(C)C)N(C)C(=O)OCc1ccc(NC(=O)[C@H](CCCNC(N)=O)NC(=O)[C@@H](NC(=O)[C@H](CCCO)NC(=O)CCOCCC(=O)NCCNc2ncc(-c3cc(C)cc(F)c3)c(N3CCC(N)CC3)c2-c2nc3cc(Cl)ccc3[nH]2)C(C)C)c(O[C@@H]2O[C@H](C(=O)NCC(=O)O)[C@@H](O)[C@H](O)[C@H]2O)c1)C(C)C [Compound 213] | 9.2 | 0.089 | 3.4
12 | CC[C@H](C)[C@@H]([C@@H](CC(=O)N1CCC[C@H]1[C@H](OC)[C@@H](C)C(=O)N[C@H](C)[C@@H](O)c1ccccc1)OC)N(C)C(=O)[C@@H](NC(=O)[C@H](C(C)C)N(C)C(=O)OCc1ccc(NC(=O)[C@H](CCCNC(N)=O)NC(=O)[C@@H](NC(=O)[C@H](CCC(=O)O)NC(=O)CCOCCC(=O)NCCNc2ncc(-c3cc(C)cc(F)c3)c(N3CCC(N)CC3)c2-c2nc3ccc(Cl)cc3[nH]2)C(C)C)c(OCCN)c1)C(C)C [Compound 1] | 15 | 0.25 | 18
13 | CC[C@H](C)[C@@H]([C@@H](CC(=O)N1CCC[C@H]1[C@H](OC)[C@@H](C)C(=O)N[C@H](C)[C@@H](O)c1ccccc1)OC)N(C)C(=O)[C@@H](NC(=O)[C@H](C(C)C)N(C)C(=O)OCc1ccc(NC(=O)[C@H](C)NC(=O)[C@@H](NC(=O)C[C@@H](N)C(=O)NCCOCCC(=O)NCCNc2ncc(-c3cc(C)cc(F)c3)c(N3CCC(NC)CC3)c2-c2nc3ccc(Cl)cc3[nH]2)C(C)C)c(O[C@@H]2O[C@H](C(=O)O)[C@@H](O)[C@H](O)[C@H]2O)c1)C(C)C [Compound 120] | 20 | 0.088 | 5.2
14 | CC[C@H](C)[C@@H]([C@@H](CC(=O)N1CCC[C@H]1[C@H](OC)[C@@H](C)C(=O)N[C@H](C)[C@@H](O)c1ccccc1)OC)N(C)C(=O)[C@@H](NC(=O)[C@H](C(C)C)N(C)C(=O)OCc1ccc(NC(=O)[C@H](C)NC(=O)[C@@H](NS(=O)(=O)C[C@H](C)NC(=O)CCOCCC(=O)NCCNc2ncc(-c3cc(C)cc(F)c3)c(N3CCC(N)CC3)c2-c2nc3ccc(Cl)cc3[nH]2)C(C)C)c(O[C@@H]2O[C@H](C(=O)N(C)CC(=O)O)[C@@H](O)[C@H](O)[C@H]2O)c1)C(C)C [Compound 221] | 27 | 0.15 | 8.8
15 | CC[C@H](C)[C@@H]([C@@H](CC(=O)N1CCC[C@H]1[C@H](OC)[C@@H](C)C(=O)N[C@H](C)[C@@H](O)c1ccccc1)OC)N(C)C(=O)[C@@H](NC(=O)[C@H](C(C)C)N(C)C(=O)OCc1ccc(NC(=O)[C@H](CCCNC(N)=O)NC(=O)[C@@H](NC(=O)c2cc(NCCOCCC(=O)NCCNc3ncc(-c4cc(C)cc(F)c4)c(N4CCC(N)CC4)c3-c3nc4ccc(F)cc4[nH]3)cc(C(=O)NCC(=O)O)c2)C(C)C)cc1)C(C)C [Compound 165] | 90 | 0.5 | 10
16 | CC[C@H](C)[C@@H]([C@@H](CC(=O)N1CCC[C@H]1[C@H](OC)[C@@H](C)C(=O)N[C@H](C)[C@@H](O)c1ccccc1)OC)N(C)C(=O)[C@@H](NC(=O)[C@H](C(C)C)N(C)C(=O)OCc1ccc(NC(=O)[C@H](CCCNC(N)=O)NC(=O)[C@@H](NC(=O)c2cn(CCOCCC(=O)NCCNc3ncc(-c4cc(C)cc(F)c4)c(N4CCC(N)CC4)c3-c3nc4ccc(Cl)cc4[nH]3)nn2)C(C)C)c(O[C@@H]2C[C@H](C(=O)O)[C@@H](O)[C@H](O)[C@H]2O)c1)C(C)C [Compound 131] | 1600 | 0.34 | 4.5
